Experimental findings from paper PMC4138023, “Selective HDAC Inhibition for the Disruption of Latent HIV-1 Infection” (PLoS ONE, 2014) are described below.

Common to all, as to test: microfluidic mobility shift (LabChip), FAM-acetylated peptide substrate
Common to all, as to type: biochemical

The target of one test is T1, HDAC1 (Homo sapiens, UniProt Q13547).
T1 construct: purified commercial enzyme from BPS Bioscience
As to conditions: without preincubation; […] min, room temperature, pH […] substrate; read-out: HDAC IC50 (μM) without preincubation / HDAC1. From the text:
microfluidic mobility shift (LabChip), FAM-acetylated peptide substrate on HDAC1

Another test deals with T2, HDAC7 (Homo sapiens, UniProt Q8WUI4).
T2 construct: purified commercial enzyme from BPS Bioscience
T2 sequence (Q8WUI4 518-952 limits assumed): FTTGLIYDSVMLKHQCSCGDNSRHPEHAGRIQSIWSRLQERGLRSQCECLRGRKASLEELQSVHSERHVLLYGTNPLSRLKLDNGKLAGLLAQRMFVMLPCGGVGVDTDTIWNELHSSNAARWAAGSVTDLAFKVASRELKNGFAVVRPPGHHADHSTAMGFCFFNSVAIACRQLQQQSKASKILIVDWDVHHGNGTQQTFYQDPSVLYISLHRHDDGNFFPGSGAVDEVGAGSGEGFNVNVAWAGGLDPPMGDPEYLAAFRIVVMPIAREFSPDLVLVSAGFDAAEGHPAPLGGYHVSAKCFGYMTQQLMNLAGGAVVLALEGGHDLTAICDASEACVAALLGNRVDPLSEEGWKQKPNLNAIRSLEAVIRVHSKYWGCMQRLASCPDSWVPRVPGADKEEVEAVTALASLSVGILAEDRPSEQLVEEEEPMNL
As to conditions: read-out: HDAC IC50 (μM) without preincubation / HDAC4. From the text: microfluidic mobility shift (LabChip), FAM-acetylated peptide substrate on HDAC7

The target in a further test is T3, HDAC4 (Homo sapiens, UniProt P56524).
T3 construct: purified commercial enzyme from BPS Bioscience
T3 sequence (P56524 627-1084 limits assumed): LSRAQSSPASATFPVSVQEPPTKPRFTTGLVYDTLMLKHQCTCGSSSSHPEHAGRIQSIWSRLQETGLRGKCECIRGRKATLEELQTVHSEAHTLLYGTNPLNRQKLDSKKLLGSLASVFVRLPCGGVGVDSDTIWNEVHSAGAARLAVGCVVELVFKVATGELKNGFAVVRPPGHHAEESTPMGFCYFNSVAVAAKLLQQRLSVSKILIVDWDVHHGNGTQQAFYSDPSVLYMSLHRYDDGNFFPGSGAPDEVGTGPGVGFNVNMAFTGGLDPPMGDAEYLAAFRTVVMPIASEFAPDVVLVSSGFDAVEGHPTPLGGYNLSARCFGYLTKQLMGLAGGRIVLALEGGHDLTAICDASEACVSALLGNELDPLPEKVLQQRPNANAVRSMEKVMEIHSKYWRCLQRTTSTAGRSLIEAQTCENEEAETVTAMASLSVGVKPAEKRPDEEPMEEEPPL
As to conditions: read-out: HDAC IC50 (μM) without preincubation / HDAC4. The source says: microfluidic mobility shift (LabChip), FAM-acetylated peptide substrate on HDAC4

In another test the target is T4, HDAC6 (Homo sapiens, UniProt Q9UBN7).
T4 construct: purified commercial enzyme from BPS Bioscience
T4 sequence (Q9UBN7 1-1215): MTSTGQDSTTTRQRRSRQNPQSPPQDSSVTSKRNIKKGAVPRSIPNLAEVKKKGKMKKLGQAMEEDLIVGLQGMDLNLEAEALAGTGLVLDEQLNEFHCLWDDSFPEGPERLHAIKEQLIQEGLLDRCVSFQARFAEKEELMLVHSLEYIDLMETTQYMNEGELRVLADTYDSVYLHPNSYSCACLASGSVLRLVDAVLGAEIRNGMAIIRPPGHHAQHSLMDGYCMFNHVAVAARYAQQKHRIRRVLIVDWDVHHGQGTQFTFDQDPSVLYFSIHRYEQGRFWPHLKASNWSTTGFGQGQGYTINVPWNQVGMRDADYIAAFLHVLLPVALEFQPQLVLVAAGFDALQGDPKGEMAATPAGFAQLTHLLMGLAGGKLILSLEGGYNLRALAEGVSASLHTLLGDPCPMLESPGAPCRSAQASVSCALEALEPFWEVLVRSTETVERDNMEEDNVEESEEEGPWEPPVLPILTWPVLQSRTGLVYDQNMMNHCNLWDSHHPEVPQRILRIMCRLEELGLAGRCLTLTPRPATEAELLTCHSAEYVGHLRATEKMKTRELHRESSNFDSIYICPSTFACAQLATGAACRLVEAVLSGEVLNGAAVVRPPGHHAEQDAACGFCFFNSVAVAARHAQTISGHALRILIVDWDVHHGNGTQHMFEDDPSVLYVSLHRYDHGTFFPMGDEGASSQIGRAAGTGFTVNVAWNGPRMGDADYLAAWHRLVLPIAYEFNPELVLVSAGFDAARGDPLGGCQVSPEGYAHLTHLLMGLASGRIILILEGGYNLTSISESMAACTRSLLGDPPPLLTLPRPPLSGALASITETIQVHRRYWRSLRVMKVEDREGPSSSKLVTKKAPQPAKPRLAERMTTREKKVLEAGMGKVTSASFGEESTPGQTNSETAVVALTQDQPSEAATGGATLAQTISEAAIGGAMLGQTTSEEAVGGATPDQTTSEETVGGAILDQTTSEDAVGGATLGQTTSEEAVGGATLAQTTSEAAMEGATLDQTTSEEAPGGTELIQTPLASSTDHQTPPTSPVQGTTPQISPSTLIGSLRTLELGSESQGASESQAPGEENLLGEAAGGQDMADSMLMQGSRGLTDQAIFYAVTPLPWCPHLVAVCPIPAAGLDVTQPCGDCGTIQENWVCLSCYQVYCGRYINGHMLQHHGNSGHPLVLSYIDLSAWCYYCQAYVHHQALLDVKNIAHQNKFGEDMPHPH
As to conditions: read-out: HDAC IC50 (μM) without preincubation / HDAC4. From the text: microfluidic mobility shift (LabChip), FAM-acetylated peptide substrate on HDAC6

A further test has as its target T5, HDAC8 (Homo sapiens, UniProt Q9BY41).
T5 construct: purified commercial enzyme from BPS Bioscience
T5 sequence (Q9BY41 1-377): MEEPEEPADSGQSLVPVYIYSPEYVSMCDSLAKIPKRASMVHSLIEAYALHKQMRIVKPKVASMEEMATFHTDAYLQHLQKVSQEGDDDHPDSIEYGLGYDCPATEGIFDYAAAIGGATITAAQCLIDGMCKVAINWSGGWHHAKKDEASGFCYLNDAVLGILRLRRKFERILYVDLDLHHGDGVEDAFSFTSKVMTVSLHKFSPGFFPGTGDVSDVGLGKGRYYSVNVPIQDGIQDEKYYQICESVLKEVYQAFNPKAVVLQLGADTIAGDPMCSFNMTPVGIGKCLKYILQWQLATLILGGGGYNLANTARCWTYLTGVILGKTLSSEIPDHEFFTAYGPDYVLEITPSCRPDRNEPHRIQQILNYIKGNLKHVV
As to conditions: read-out: HDAC IC50 (μM) without preincubation / HDAC4. The source says: microfluidic mobility shift (LabChip), FAM-acetylated peptide substrate on HDAC8

The target of a further test is T6, HDAC9 (Homo sapiens, UniProt Q9UKV0).
T6 construct: purified commercial enzyme from BPS Bioscience
T6 sequence (Q9UKV0 604-1011 limits assumed): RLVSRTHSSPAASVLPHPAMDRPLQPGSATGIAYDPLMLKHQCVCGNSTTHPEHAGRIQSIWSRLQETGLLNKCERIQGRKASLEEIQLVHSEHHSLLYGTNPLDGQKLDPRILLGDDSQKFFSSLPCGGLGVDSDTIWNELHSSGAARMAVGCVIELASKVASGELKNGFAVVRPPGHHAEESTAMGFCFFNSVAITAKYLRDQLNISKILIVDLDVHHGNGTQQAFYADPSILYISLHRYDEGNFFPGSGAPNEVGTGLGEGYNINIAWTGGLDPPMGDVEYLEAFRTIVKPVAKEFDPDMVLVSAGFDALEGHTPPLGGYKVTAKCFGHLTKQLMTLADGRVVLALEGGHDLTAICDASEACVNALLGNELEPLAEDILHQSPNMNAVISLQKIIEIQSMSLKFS
As to conditions: read-out: HDAC IC50 (μM) without preincubation / HDAC9. From the text:
microfluidic mobility shift (LabChip), FAM-acetylated peptide substrate on HDAC9

The target in the next test is T7, HDAC5 (Homo sapiens, UniProt Q9UQL6).
T7 construct: purified commercial enzyme from BPS Bioscience
T7 sequence (Q9UQL6 whole entry): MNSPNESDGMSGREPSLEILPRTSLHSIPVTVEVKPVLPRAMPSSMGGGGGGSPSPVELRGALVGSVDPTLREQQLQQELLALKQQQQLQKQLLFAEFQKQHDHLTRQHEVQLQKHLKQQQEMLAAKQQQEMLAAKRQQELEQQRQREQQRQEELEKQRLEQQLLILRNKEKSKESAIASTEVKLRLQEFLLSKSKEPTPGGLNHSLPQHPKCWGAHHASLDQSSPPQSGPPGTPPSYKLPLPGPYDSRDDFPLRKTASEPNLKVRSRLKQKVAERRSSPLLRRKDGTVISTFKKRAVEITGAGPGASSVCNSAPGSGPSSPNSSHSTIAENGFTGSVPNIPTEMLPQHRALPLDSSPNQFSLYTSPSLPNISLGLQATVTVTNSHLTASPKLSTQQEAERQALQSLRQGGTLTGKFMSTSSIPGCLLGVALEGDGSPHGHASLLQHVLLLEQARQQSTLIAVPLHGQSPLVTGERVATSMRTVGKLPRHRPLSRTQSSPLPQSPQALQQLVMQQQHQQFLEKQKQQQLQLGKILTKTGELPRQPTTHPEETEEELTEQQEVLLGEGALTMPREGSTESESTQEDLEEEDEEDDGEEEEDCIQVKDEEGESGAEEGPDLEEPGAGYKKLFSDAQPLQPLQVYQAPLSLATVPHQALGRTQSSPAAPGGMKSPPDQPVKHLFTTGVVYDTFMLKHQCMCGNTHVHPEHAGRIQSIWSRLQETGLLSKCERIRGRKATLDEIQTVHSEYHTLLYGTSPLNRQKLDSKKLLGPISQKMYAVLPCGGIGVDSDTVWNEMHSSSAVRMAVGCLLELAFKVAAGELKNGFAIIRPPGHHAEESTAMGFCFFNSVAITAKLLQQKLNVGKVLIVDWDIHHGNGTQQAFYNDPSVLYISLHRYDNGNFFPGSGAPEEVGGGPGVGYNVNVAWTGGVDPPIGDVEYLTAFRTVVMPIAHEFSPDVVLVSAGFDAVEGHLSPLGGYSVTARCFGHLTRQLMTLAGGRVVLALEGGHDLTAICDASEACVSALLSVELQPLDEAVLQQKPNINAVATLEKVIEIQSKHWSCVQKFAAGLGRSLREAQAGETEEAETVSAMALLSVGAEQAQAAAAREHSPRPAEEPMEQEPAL
As to conditions: read-out: HDAC IC50 (μM) without preincubation / HDAC5. From the text: microfluidic mobility shift (LabChip), FAM-acetylated peptide substrate on HDAC5

Another test addresses T8, HDAC3 (Homo sapiens, UniProt O15379).
T8 construct: purified commercial enzyme from BPS Bioscience; with Nuclear receptor corepressor 2
As to conditions: without preincubation; […] min, room temperature, pH […] substrate; read-out: HDAC IC50 (μM) without preincubation / HDAC3. The source says: microfluidic mobility shift (LabChip), FAM-acetylated peptide substrate on HDAC3

Another test has as its target T9, HDAC2 (Homo sapiens, UniProt Q92769).
T9 construct: purified commercial enzyme from BPS Bioscience
As to conditions: without preincubation; […] min, room temperature, pH […] substrate; read-out: HDAC IC50 (μM) without preincubation / HDAC2. The source says:
microfluidic mobility shift (LabChip), FAM-acetylated peptide substrate on HDAC2

T1 sequence (Q13547 whole entry): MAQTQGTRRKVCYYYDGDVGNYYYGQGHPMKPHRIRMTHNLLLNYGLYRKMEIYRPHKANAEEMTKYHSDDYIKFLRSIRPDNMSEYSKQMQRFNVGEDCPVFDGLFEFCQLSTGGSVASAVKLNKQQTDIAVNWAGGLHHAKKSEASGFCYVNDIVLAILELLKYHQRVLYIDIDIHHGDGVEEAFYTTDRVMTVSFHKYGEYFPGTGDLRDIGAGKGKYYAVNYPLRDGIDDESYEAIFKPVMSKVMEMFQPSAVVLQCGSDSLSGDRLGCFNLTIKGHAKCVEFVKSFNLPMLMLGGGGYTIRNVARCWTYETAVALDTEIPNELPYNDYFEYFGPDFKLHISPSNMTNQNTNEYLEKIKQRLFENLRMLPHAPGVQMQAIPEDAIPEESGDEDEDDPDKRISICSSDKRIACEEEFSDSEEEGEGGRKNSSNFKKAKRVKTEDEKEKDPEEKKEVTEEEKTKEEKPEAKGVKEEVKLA
T9 sequence (Q92769 whole entry): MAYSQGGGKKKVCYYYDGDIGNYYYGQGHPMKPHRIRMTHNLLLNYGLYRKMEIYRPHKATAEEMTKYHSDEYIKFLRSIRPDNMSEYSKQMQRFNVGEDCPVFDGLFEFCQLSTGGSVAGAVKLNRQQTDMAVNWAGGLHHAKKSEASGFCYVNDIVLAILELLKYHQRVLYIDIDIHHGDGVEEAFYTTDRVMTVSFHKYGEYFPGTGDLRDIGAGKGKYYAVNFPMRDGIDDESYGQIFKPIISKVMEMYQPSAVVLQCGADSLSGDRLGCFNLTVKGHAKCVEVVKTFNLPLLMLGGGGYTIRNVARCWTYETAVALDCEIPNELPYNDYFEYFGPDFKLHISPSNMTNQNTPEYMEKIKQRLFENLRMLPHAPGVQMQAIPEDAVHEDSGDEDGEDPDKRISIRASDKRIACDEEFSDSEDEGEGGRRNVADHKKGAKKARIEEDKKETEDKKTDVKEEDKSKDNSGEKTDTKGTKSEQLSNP

Take `CC(=O)Nc1ccc(C(=O)Nc2ccc(F)cc2N)cc1` [BRD3308]: the IC50 on HDAC1 is 1.26 µM; on HDAC7, greater than 33 µM; at HDAC4, greater than 33 µM; on HDAC6 it was greater than 33 µM; at HDAC8, greater than 33 µM; at HDAC9, greater than 33 µM. The IC50 on HDAC5 was greater than 33 µM; at HDAC3, 0.054 µM; at HDAC2, 1.34 µM.
